Source: BindingDB's records for doi:10.1074/jbc.271.44.27217 (Yamanouchi Pharmaceutical, 1996)
pKi: −log10 of the molar value.

Target: T1, Neuropeptide Y receptor type 2 (Oryctolagus cuniculus, UniProt B6VRS5)
T1 sequence (B6VRS5 whole entry): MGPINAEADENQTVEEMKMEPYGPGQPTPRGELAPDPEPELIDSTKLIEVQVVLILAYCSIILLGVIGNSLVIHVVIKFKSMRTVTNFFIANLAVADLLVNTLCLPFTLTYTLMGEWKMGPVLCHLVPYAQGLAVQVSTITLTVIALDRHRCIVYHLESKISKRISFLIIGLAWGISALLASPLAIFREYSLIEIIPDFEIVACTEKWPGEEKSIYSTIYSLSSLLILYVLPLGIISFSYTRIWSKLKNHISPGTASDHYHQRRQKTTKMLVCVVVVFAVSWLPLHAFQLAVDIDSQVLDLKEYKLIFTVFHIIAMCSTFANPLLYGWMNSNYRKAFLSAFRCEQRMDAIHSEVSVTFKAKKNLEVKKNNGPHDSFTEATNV

- pKi: 6.47
SMILES: CC[C@H](C)[C@H](NC(=O)[C@H](Cc1ccc(O)cc1)NC(=O)[C@H](CCCNC(=N)N)NC(=O)[C@H](CCCNC(=N)N)NC(=O)[C@H](CC(C)C)NC(=O)[C@H](CC(=O)O)NC(=O)[C@H](C)NC(=O)[C@H](C)NC(=O)[C@H](Cc1ccc(O)cc1)NC(=O)[C@H](CCC(N)=O)NC(=O)[C@H](C)NC(=O)[C@H](CCSC)NC(=O)[C@H](CCC(N)=O)NC(=O)[C@H](CCC(=O)O)NC(=O)[C@@H]1CCCN1C(=O)[C@@H](NC(=O)[C@H](C)NC(=O)[C@H](CC(N)=O)NC(=O)[C@H](CC(=O)O)NC(=O)CNC(=O)[C@@H]1CCCN1C(=O)[C@H](Cc1ccc(O)cc1)NC(=O)[C@@H](NC(=O)[C@@H]1CCCN1C(=O)[C@H](CCC(=O)O)NC(=O)[C@H](CC(C)C)NC(=O)[C@@H]1CCCN1C(=O)[C@H](C)N)C(C)C)[C@@H](C)O)C(=O)N[C@@H](CC(N)=O)C(=O)N[C@@H](CCSC)C(=O)N[C@@H](CC(C)C)C(=O)N[C@H](C(=O)N[C@@H](CCCNC(=N)N)C(=O)N1CCC[C@H]1C(=O)N[C@@H](CCCNC(=N)N)C(=O)N[C@@H](Cc1ccc(O)cc1)C(N)=O)[C@@H](C)O [CAS_59763-91-6]
